# According to US20230085307A1, “PYRIDAZINONE COMPOUND AND HERBICIDE” (NISSAN CHEMICAL CORPORATION, priority 2019, published 2023):
# How the values were obtained:
# barnyard grass [1] = test: Test Example 3: herbicidal effect by foliage application, Wagner pot (Table 18, symbol H); assay type: in vivo, barnyard grass (Echinochloa crus-galli)
# Method in brief: (§1)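 Plants were sown in alluvial soil held under 0.1–0.5 cm standing water and grown 14 days in a greenhouse at 25–30 °C. An emulsifiable formulation, water-diluted to the set dose, was then sprayed onto the foliage, and effects were scored three weeks later using previously defined criteria.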
# Chinese sprangletop = test: Test Example 3: herbicidal effect by foliage application, Wagner pot (Table 18, symbol D); assay type: in vivo, chinese sprangletop (Leptochloa chinensis)
# Method in brief: as §1
# rice flat sedge = test: Test Example 3: herbicidal effect by foliage application, Wagner pot (Table 18, symbol E); assay type: in vivo, rice flat sedge (Cyperus iria)
# Method in brief: as §1
# southern crabgrass [2] = test: Test Example 4: herbicidal effect by soil treatment (Table 19, symbol F); assay type: in vivo, southern crabgrass (Digitaria ciliaris); conditions: amount of applied herbicide 320 g/ha
# Method in brief: (§2)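 Applied as a water-diluted emulsion, the compound was sprayed onto soil covering newly sown seeds. Evaluation came three weeks after application, in a greenhouse held at 25° C. to 30° C.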
# green foxtail [3] = test: Test Example 4: herbicidal effect by soil treatment (Table 19, symbol G); assay type: in vivo, green foxtail (Setaria viridis); conditions: amount of applied herbicide 320 g/ha
# Method in brief: as §2
# barnyard grass [4] = test: Test Example 4: herbicidal effect by soil treatment (Table 19, symbol H); assay type: in vivo, barnyard grass (Echinochloa crus-galli); conditions: amount of applied herbicide 320 g/ha
# Method in brief: as §2
# wild oat [5] = test: Test Example 4: herbicidal effect by soil treatment (Table 19, symbol I); assay type: in vivo, wild oat (Avena fatua); conditions: amount of applied herbicide 320 g/ha
# Method in brief: as §2
# Italian ryegrass [6] = test: Test Example 4: herbicidal effect by soil treatment (Table 19, symbol K); assay type: in vivo, Italian ryegrass (Lolium multiflorum); conditions: amount of applied herbicide 320 g/ha
# Method in brief: as §2
# windgrass [7] = test: Test Example 4: herbicidal effect by soil treatment (Table 19, symbol L); assay type: in vivo, windgrass (Apera spica-venti); conditions: amount of applied herbicide 320 g/ha
# Method in brief: as §2
# velvetleaf [8] = test: Test Example 4: herbicidal effect by soil treatment (Table 19, symbol M); assay type: in vivo, velvetleaf (Abutilon theophrasti); conditions: amount of applied herbicide 320 g/ha
# Method in brief: as §2
# redroot pigweed [9] = test: Test Example 4: herbicidal effect by soil treatment (Table 19, symbol N); assay type: in vivo, redroot pigweed (Amaranthus retroflexus); conditions: amount of applied herbicide 320 g/ha
# Method in brief: as §2
# lambsquarters [10] = test: Test Example 4: herbicidal effect by soil treatment (Table 19, symbol O); assay type: in vivo, lambsquarters (Chenopodium album); conditions: amount of applied herbicide 320 g/ha
# Method in brief: as §2
# chickweed [11] = test: Test Example 4: herbicidal effect by soil treatment (Table 19, symbol P); assay type: in vivo, common chickweed (Stellaria media); conditions: amount of applied herbicide 320 g/ha
# Method in brief: as §2
# persian speedwell [12] = test: Test Example 4: herbicidal effect by soil treatment (Table 19, symbol R); assay type: in vivo, Persian speedwell (Veronica persica); conditions: amount of applied herbicide 320 g/ha
# Method in brief: as §2
# southern crabgrass [13] = test: Test Example 5: herbicidal effect by foliage application, plastic box (Table 20, symbol F); assay type: in vivo, southern crabgrass (Digitaria ciliaris)
# Method in brief: (§3)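 Sow seeds spot-wise in sterilized diluvial soil; cover with ~1.5 cm soil. Grow 14 days in greenhouse, 25° C. to 30° C. Spray foliage with emulsion diluted to predetermined amount. Rate effect after 3 weeks.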
# green foxtail [14] = test: Test Example 5: herbicidal effect by foliage application, plastic box (Table 20, symbol G); assay type: in vivo, green foxtail (Setaria viridis)
# Method in brief: as §3
# barnyard grass [15] = test: Test Example 5: herbicidal effect by foliage application, plastic box (Table 20, symbol H); assay type: in vivo, barnyard grass (Echinochloa crus-galli)
# Method in brief: as §3
# wild oat [16] = test: Test Example 5: herbicidal effect by foliage application, plastic box (Table 20, symbol I); assay type: in vivo, wild oat (Avena fatua)
# Method in brief: as §3
# blackgrass = test: Test Example 5: herbicidal effect by foliage application, plastic box (Table 20, symbol J); assay type: in vivo, blackgrass (Alopecurus myosuroides)
# Method in brief: as §3
# Italian ryegrass [17] = test: Test Example 5: herbicidal effect by foliage application, plastic box (Table 20, symbol K); assay type: in vivo, Italian ryegrass (Lolium multiflorum)
# Method in brief: as §3
# windgrass [18] = test: Test Example 5: herbicidal effect by foliage application, plastic box (Table 20, symbol L); assay type: in vivo, windgrass (Apera spica-venti)
# Method in brief: as §3
# velvetleaf [19] = test: Test Example 5: herbicidal effect by foliage application, plastic box (Table 20, symbol M); assay type: in vivo, velvetleaf (Abutilon theophrasti)
# Method in brief: as §3
# redroot pigweed [20] = test: Test Example 5: herbicidal effect by foliage application, plastic box (Table 20, symbol N); assay type: in vivo, redroot pigweed (Amaranthus retroflexus)
# Method in brief: as §3
# lambsquarters [21] = test: Test Example 5: herbicidal effect by foliage application, plastic box (Table 20, symbol O); assay type: in vivo, lambsquarters (Chenopodium album)
# Method in brief: as §3
# chickweed [22] = test: Test Example 5: herbicidal effect by foliage application, plastic box (Table 20, symbol P); assay type: in vivo, common chickweed (Stellaria media)
# Method in brief: as §3
# persian speedwell [23] = test: Test Example 5: herbicidal effect by foliage application, plastic box (Table 20, symbol R); assay type: in vivo, Persian speedwell (Veronica persica)
# Method in brief: as §3
# [24] = amount of applied herbicide 320 g/ha, foliage application after 14-day growth, evaluated three weeks after application
# [25] = amount of applied herbicide 320 g/ha
# [26] = foliage application, 320 g/ha, evaluated 3 weeks after application
structure (smiles),measurement,setting,value
Cc1nn(C)c(=O)c(-c2c(-c3ccc4c(c3)OCCO4)sc3cc(F)c(F)cc23)c1O [5-037],herbicidal effect on barnyard grass (H),barnyard grass [1]; 320 g/ha,4 (Herbicidal rate of 70% or more and less than 90%)
same,herbicidal effect on Chinese sprangletop (D),Chinese sprangletop; 320 g/ha,4 (Herbicidal rate of 70% or more and less than 90%)
same,herbicidal effect on rice flat sedge (E),rice flat sedge; 320 g/ha,5 (Herbicidal rate of 90% or more (almost completely withered))
same,"F: southern crabgrass, herbicidal effect grade",southern crabgrass [2],0 (Herbicidal rate of 5% or less (almost no effect))
same,"G: green foxtail, herbicidal effect grade",green foxtail [3],0 (Herbicidal rate of 5% or less (almost no effect))
same,"H: barnyard grass, herbicidal effect grade",barnyard grass [4],0 (Herbicidal rate of 5% or less (almost no effect))
same,"I: wild oat, herbicidal effect grade",wild oat [5],0 (Herbicidal rate of 5% or less (almost no effect))
same,"K: Italian ryegrass, herbicidal effect grade",Italian ryegrass [6],0 (Herbicidal rate of 5% or less (almost no effect))
same,"L: windgrass, herbicidal effect grade",windgrass [7],0 (Herbicidal rate of 5% or less (almost no effect))
same,"M: velvetleaf, herbicidal effect grade",velvetleaf [8],5 (Herbicidal rate of 90% or more (almost completely withered))
same,"N: redroot pigweed, herbicidal effect grade",redroot pigweed [9],4 (Herbicidal rate of 70% or more and less than 90%)
same,"O: lambsquarters, herbicidal effect grade",lambsquarters [10],5 (Herbicidal rate of 90% or more (almost completely withered))
same,"P: chickweed, herbicidal effect grade",chickweed [11],0 (Herbicidal rate of 5% or less (almost no effect))
same,"R: persian speedwell, herbicidal effect grade",persian speedwell [12],5 (Herbicidal rate of 90% or more (almost completely withered))
same,"Herbicidal effect by foliage application, F: southern crabgrass",southern crabgrass [13]; [24],0 (Herbicidal rate of 5% or less (almost no effect))
same,"Herbicidal effect by foliage application, G: green foxtail",green foxtail [14]; [24],0 (Herbicidal rate of 5% or less (almost no effect))
same,"Herbicidal effect by foliage application, H: barnyard grass",barnyard grass [15]; [24],0 (Herbicidal rate of 5% or less (almost no effect))
same,"Herbicidal effect by foliage application, I: wild oat",wild oat [16]; [24],0 (Herbicidal rate of 5% or less (almost no effect))
same,"Herbicidal effect by foliage application, J: blackgrass",blackgrass; [24],0 (Herbicidal rate of 5% or less (almost no effect))
same,"Herbicidal effect by foliage application, K: Italian ryegrass",Italian ryegrass [17]; [24],0 (Herbicidal rate of 5% or less (almost no effect))
same,"Herbicidal effect by foliage application, L: windgrass",windgrass [18]; [24],0 (Herbicidal rate of 5% or less (almost no effect))
same,"Herbicidal effect by foliage application, M: velvetleaf",velvetleaf [19]; [24],5 (Herbicidal rate of 90% or more (almost completely withered))
same,"Herbicidal effect by foliage application, N: redroot pigweed",redroot pigweed [20]; [24],5 (Herbicidal rate of 90% or more (almost completely withered))
same,"Herbicidal effect by foliage application, O: lambsquarters",lambsquarters [21]; [24],5 (Herbicidal rate of 90% or more (almost completely withered))
same,"Herbicidal effect by foliage application, P: chickweed",chickweed [22]; [24],5 (Herbicidal rate of 90% or more (almost completely withered))
same,"Herbicidal effect by foliage application, R: persian speedwell",persian speedwell [23]; [24],5 (Herbicidal rate of 90% or more (almost completely withered))
COCc1ccc(-c2oc3ccc(C)cc3c2-c2c(O)c(C)nn(C)c2=O)cc1 [9-061],"Herbicidal effect on H (barnyard grass), foliage application",barnyard grass [1]; [25],5 (Herbicidal rate of 90% or more (almost completely withered))
same,"Herbicidal effect on D (Chinese sprangletop), foliage application",Chinese sprangletop; [25],4 (Herbicidal rate of 70% or more and less than 90%)
same,"Herbicidal effect on E (rice flat sedge), foliage application",rice flat sedge; [25],5 (Herbicidal rate of 90% or more (almost completely withered))
same,"F: southern crabgrass, herbicidal effect grade",southern crabgrass [2],5 (Herbicidal rate of 90% or more (almost completely withered))
same,"G: green foxtail, herbicidal effect grade",green foxtail [3],5 (Herbicidal rate of 90% or more (almost completely withered))
same,"H: barnyard grass, herbicidal effect grade",barnyard grass [4],5 (Herbicidal rate of 90% or more (almost completely withered))
same,"I: wild oat, herbicidal effect grade",wild oat [5],2 (Herbicidal rate of 20% or more and less than 40%)
same,"K: Italian ryegrass, herbicidal effect grade",Italian ryegrass [6],5 (Herbicidal rate of 90% or more (almost completely withered))
same,"L: windgrass, herbicidal effect grade",windgrass [7],0 (Herbicidal rate of 5% or less (almost no effect))
same,"M: velvetleaf, herbicidal effect grade",velvetleaf [8],4 (Herbicidal rate of 70% or more and less than 90%)
same,"N: redroot pigweed, herbicidal effect grade",redroot pigweed [9],5 (Herbicidal rate of 90% or more (almost completely withered))
same,"O: lambsquarters, herbicidal effect grade",lambsquarters [10],5 (Herbicidal rate of 90% or more (almost completely withered))
same,"P: chickweed, herbicidal effect grade",chickweed [11],4 (Herbicidal rate of 70% or more and less than 90%)
same,"R: persian speedwell, herbicidal effect grade",persian speedwell [12],5 (Herbicidal rate of 90% or more (almost completely withered))
same,F (southern crabgrass) herbicidal effect grade,southern crabgrass [13]; [26],5 (Herbicidal rate of 90% or more (almost completely withered))
same,G (green foxtail) herbicidal effect grade,green foxtail [14]; [26],5 (Herbicidal rate of 90% or more (almost completely withered))
same,H (barnyard grass) herbicidal effect grade,barnyard grass [15]; [26],5 (Herbicidal rate of 90% or more (almost completely withered))
same,I (wild oat) herbicidal effect grade,wild oat [16]; [26],3 (Herbicidal rate of 40% or more and less than 70%)
same,J (blackgrass) herbicidal effect grade,blackgrass; [26],5 (Herbicidal rate of 90% or more (almost completely withered))
same,K (Italian ryegrass) herbicidal effect grade,Italian ryegrass [17]; [26],5 (Herbicidal rate of 90% or more (almost completely withered))
same,L (windgrass) herbicidal effect grade,windgrass [18]; [26],4 (Herbicidal rate of 70% or more and less than 90%)
same,M (velvetleaf) herbicidal effect grade,velvetleaf [19]; [26],5 (Herbicidal rate of 90% or more (almost completely withered))
same,N (redroot pigweed) herbicidal effect grade,redroot pigweed [20]; [26],5 (Herbicidal rate of 90% or more (almost completely withered))
same,O (lambsquarters) herbicidal effect grade,lambsquarters [21]; [26],5 (Herbicidal rate of 90% or more (almost completely withered))
same,P (chickweed) herbicidal effect grade,chickweed [22]; [26],5 (Herbicidal rate of 90% or more (almost completely withered))
same,R (persian speedwell) herbicidal effect grade,persian speedwell [23]; [26],5 (Herbicidal rate of 90% or more (almost completely withered))
